The values that follow come from article PMC10497945, “Dual-targeting peptides@PMO, a mimetic to the pro-apoptotic protein Smac/DIABLO for selective activation of apoptosis in cancer cells” (Frontiers in Pharmacology, 2023).

One data set concerns HeLa S-3 cells. The data set can be described thus: Resazurin reduction viability assay. The settings on record: HeLa, 1, 5, and 25 µM, 48 h, n = 3.
A further data set deals with Ht-29 cells. The experiment in a line: Resazurin reduction viability assay. The format is cell-based, human. The settings on record: Ht-29, 1, 5, and 25 µM, 48 h, n = 3.
Data set [1] can be described thus: Determination of PMO peptide functionalization by absorbance. The format is physicochemical. The note with it: UV absorbance in ethanol, Phe (257 nm) and Fmoc-Ala (267 nm) calibration curves, PMO baseline subtracted; estimated. The procedure:
To quantify the amounts of peptides on the PMO, a Varian Cary 50 bio benchtop spectrophotometer in the range of 200–800 nm with a 1-nm step was used ([Faura et al. 2021]). The calibration curves were determined by preparing five solutions at known concentrations of Phenylalanine and Fmoc-Alanine used as standards. Briefly, a stock solution of 5 mM Phe in absolute ethanol was diluted to the final concentrations of 0.2 mM, 0.5 mM, […], 2 mM, and 5 mM. A standard solution of 52.7 μM Fmoc-Alanine (Ala) in absolute ethanol was diluted to the concentrations of 20 μM, 10 μM, 5 μM, and 2 μM. The fluorescence signals were recorded for Phenylalanine (Phe: λex 240 nm and λem 282 nm) ([Lakowicz, 2006]) and Fmoc-Ala (λex […] and λem 280 nm) ([Pappas et al., 2014]) and plotted against their respective sample concentrations. […]
The absorbance values of peptides linked to PMOs were adjusted to account for potential interference caused by PMOs, which can scatter or absorb light in the visible and UV ranges, leading to inaccuracies in absorbance measurements of chromophores. The absorbance spectrum of PMO was subtracted from the absorbance spectrum of the sample containing the peptide@PMO. In the region of absorption of the chromophore, we observed a linear and well-defined relationship between the absorbance of PMO and wavelength. […]

Procedure for HeLa S-3 cells: For the resazurin-to-resorufin reduction assays, cells were grown in a 96-well plate for 120 min at 37 °C with resazurin solution (0.15 mg/ml) (Sigma-Aldrich, Milan, Italy). The fluorescence of resorufin was quantified on a PerkinElmer EnSpire 2,300 Multilabel Reader (ex 550 nm/em 590 nm). For the Apo-ONE assay, 25,000 cells were seeded in a 96-well white polystyrene microplate (Corning, United States of America). After 24 h, cells were treated for 36 h with oxaliplatin and oxaliplatin+SS35. Cells were then lysed and subjected to caspase-3/7 (DEVDase) activity assays by using the Apo-ONE Homogeneous Caspase-3/7 Assay (Promega, Madison, United States of America) according to the manufacturer’s instructions. After 30 min of incubation, fluorescence was recorded in the linear phase of the kinetics with a Synergy H1 plate reader (BioTek, Winooski, United States of America). For the trypan blue viability assay, cells were harvested, pelleted at 1500 rcf, and incubated for 5 min with a PBS/0.4% Trypan Blue solution (Gibco). At least 300 cells were counted for each condition.
First, Ht-29 and HeLa cells were treated with increasing doses (0.02, 0.04, and 0.06 μg/ml) of SS28, SS35, and SS36 for 48 h, and cell viability was assessed by resazurin reduction assays (Figure 6A). […]

For `N=C(N)NCCC[C@@H]1NC(=O)[C@H](CCCCN)NC(=O)[C@@H](Cc2ccccc2)NC(=O)[C@H](CC(=O)O)NC(=O)CNC1=O` [p28, cyclic[RGDfK]], the “cytotoxicity of free peptide compared with nanoparticle-conjugated peptide” value in the data set with HeLa S-3 cells and in the data set with Ht-29 cells was “significantly attenuated” in each case.
Take “FmocAVPI@PMO [Fmoc-protected AVPI peptide conjugated to PMO, apparently the precursor of SS36]”: in data set [1], the “Peptide/PMO: peptide amount binding for each milligram of PMO” value is 0.074 mg.
